A short description of data set [1]: Apparent permeability across basolateral to apical side in human Caco-2 cells at 2 uM incubated for 2 hrs by LC-MS/MS analysis. The format is ADME, cell-based.
Data set [2] deals with A549. In words: Inhibition of cell migration in human A549 cells assessed as wound recovery at 1.8 uM measured after 72 hrs by inverted microscopic analysis (reference value: 53.4 %). The format is functional. Also noted: scale not given: the % may be the effect or the level left.
Data set [3] in a line: Stability in pooled human plasma assessed as parent compound remaining at 2 uM measured after 10 mins by LC-MS/MS analysis (reference value: 100%). It counts as ADME, cell-free. Conditions: read-out: Stability.
Data set [4] in a line: Stability in pooled human plasma assessed as parent compound remaining at 2 uM measured after 60 mins by LC-MS/MS analysis (reference value: 100%). The format is ADME, cell-free. Conditions: read-out: Stability.
For data set [5], the system named is A549. Description: Inhibition of cell migration in human A549 cells assessed as wound recovery at 0.2 uM measured after 72 hrs by inverted microscopic analysis (reference value: 53.4 %). The format is functional. More on the design: scale not given: the % may be the effect or the level left.
The test system of data set [6] is A549. In words: cells. Conditions: Homo sapiens, A549, 72 h.
Data set [7] relates to A549. In words: Antiinvasive activity in human A549 cells assessed as inhibition of cell invasion by measuring reduction in cell count incubated for 72 hrs by crystal violet staining based transwell assay. The note with it: dose 0.2-1.8 µM, DDE = dose-dependent effect. The format is functional.
Data set [8] is described as follows: Stability in pooled human plasma assessed as parent compound remaining at 2 uM measured after 30 mins by LC-MS/MS analysis (reference value: 100%). The format is ADME, cell-free. The note with it: read-out: Stability.
Data set [9] is described as follows: Stability in pooled human plasma assessed as half life at 2 uM measured upto 120 mins by LC-MS/MS analysis. It counts as ADME, cell-free.
Data set [10] deals with A549. Description: Inhibition of cell migration in human A549 cells assessed as wound recovery at 1.8 uM measured after 24 hrs by inverted microscopic analysis (reference value: 28.2 %). The format is functional. Also noted: scale not given: the % may be the effect or the level left.
Data set [11] concerns A549. Description: Inhibition of cell migration in human A549 cells assessed as wound recovery at 0.6 uM measured after 72 hrs by inverted microscopic analysis (reference value: 53.4 %). The format is functional. More on the design: scale not given: the % may be the effect or the level left.
Data set [12] relates to A549. In words: Inhibition of cell migration in human A549 cells assessed as wound recovery at 0.2 uM measured after 24 hrs by inverted microscopic analysis (reference value: 28.2 %). It counts as functional. Also noted: scale not given: the % may be the effect or the level left.
Data set [13] in a line: Stability in pooled human plasma assessed as parent compound remaining at 2 uM measured after 120 mins by LC-MS/MS analysis (reference value: 100%). It counts as ADME, cell-free. The note with it: read-out: Stability.
Data set [14] in a line: Apparent permeability across apical to basolateral side in human Caco-2 cells at 2 uM incubated for 2 hrs by LC-MS/MS analysis. It counts as ADME, cell-based.
Data set [15] relates to A549. Description: Inhibition of cell migration in human A549 cells assessed as wound recovery at 0.6 uM measured after 24 hrs by inverted microscopic analysis (reference value: 28.2 %). It counts as functional. Also noted: scale not given: the % may be the effect or the level left.

The structures appear in SMILES notation.

Take `CNC(=O)c1ccccc1Nc1nc(Nc2ccc(N3CCN(CCCCC(=O)Nc4cccc5c4C(=O)N(C4CCC(=O)NC4=O)C5=O)CC3)cc2OC)ncc1Cl` (configuration not stated): in [1], the Papp B→A at 2 h, 2 µM was found to be 4.7 ×10⁻⁶ cm/s. Also, the Activity in the data set on A549 [2] is 21.7%; with A549 [5], 42.4%; in the data set on A549 [7], “Dde”; in the data set on A549 [10], 3.6%; with A549 [11] it was 33.3%; in the data set on A549 [12], 13.7%. Moreover, the Activity in the data set on A549 [15] is given as 11.1%. The remaining at 10 min, 2 µM in [3] worked out at 112%. For the same compound, in data set [4], the remaining at 1 h, 2 µM amounted to 98.3%. Besides, inhibition in the data set with A549 [6] was half-maximal at 140 nM (IC50). Moreover, the remaining at 0.5 h, 2 µM in [8] came out at 96.6%. Besides, in [9], the half-life at 2 µM is more than 4.82 h. In addition, in data set [13], the remaining at 2 h, 2 µM was found to be 86.2%. For the same compound, in data set [14], the Papp A→B at 2 h, 2 µM came out at 1.4 ×10⁻⁶ cm/s.
For the compound `CNC(=O)c1ccccc1Nc1nc(Nc2ccc(N3CCOCC3)cc2OC)ncc1Cl`, half-maximal inhibition in the data set with A549 [6] (IC50) was put at 1310 nM. Moreover, the Activity result in the data set with A549 [7] is “Dde”.
With `CNC(=O)c1ccccc1Nc1nc(Nc2ccc(N3CCN(CCCCCCCC(=O)NCCNc4cccc5c4C(=O)N(C4CCC(=O)NC4=O)C5=O)CC3)cc2OC)ncc1Cl` (configuration not stated), it took 330 nM to reach half-maximal inhibition in the data set on A549 [6] (IC50).
On the same count and under the same terms, for `CNC(=O)c1ccccc1Nc1nc(Nc2ccc(N3CCN(CCCCCC(=O)NCCNc4cccc5c4C(=O)N(C4CCC(=O)NC4=O)C5=O)CC3)cc2OC)ncc1Cl` (configuration not stated) the value was 310 nM; for `CNC(=O)c1ccccc1Nc1nc(Nc2ccc(N3CCN(CCCCCC(=O)Nc4cccc5c4C(=O)N(C4CCC(=O)NC4=O)C5=O)CC3)cc2OC)ncc1Cl` (configuration not stated), 260 nM; for `CNC(=O)c1ccccc1Nc1nc(Nc2ccc(N3CCN(CCCCC(=O)Nc4ccc5c(c4)C(=O)N(C4CCC(=O)NC4=O)C5=O)CC3)cc2OC)ncc1Cl` (configuration not stated), 3420 nM.
`CNC(=O)c1ccccc1Nc1nc(Nc2ccc(N3CCN(CCCCC(=O)Nc4cccc5c4CN(C4CCC(=O)NC4=O)C5=O)CC3)cc2OC)ncc1Cl` (configuration not stated) gave an IC50 in the data set with A549 [6] of 270 nM.
On the same count and under the same terms, in the case of `CNC(=O)c1ccccc1Nc1nc(Nc2ccc(N3CCN(CCCCCCCCC(=O)Nc4cccc5c4C(=O)N(C4CCC(=O)NC4=O)C5=O)CC3)cc2OC)ncc1Cl` (configuration not stated) it was 1350 nM.
In turn, `CNC(=O)c1ccccc1Nc1nc(Nc2ccc(N3CCN(CCCCC(=O)NCCNc4cccc5c4C(=O)N(C4CCC(=O)NC4=O)C5=O)CC3)cc2OC)ncc1Cl` (configuration not stated) displayed an IC50 in the data set with A549 [6] of 4010 nM.
The same measure, in the same setting: for `CNC(=O)c1ccccc1Nc1nc(Nc2ccc(N3CCN(CCCCCCC(=O)Nc4cccc5c4C(=O)N(C4CCC(=O)NC4=O)C5=O)CC3)cc2OC)ncc1Cl` (configuration not stated) the value was 790 nM.
Still for that read-out and setting: for `CNC(=O)c1ccccc1Nc1nc(Nc2ccc(N3CCN(CCCCCCCCNC(=O)CNc4cccc5c4C(=O)N(C4CCC(=O)NC4=O)C5=O)CC3)cc2OC)ncc1Cl` (configuration not stated) the value was 2250 nM.
In the case of `CNC(=O)c1ccccc1Nc1nc(Nc2ccc(N3CCN(CCCCCCCCCC(=O)Nc4cccc5c4C(=O)N(C4CCC(=O)NC4=O)C5=O)CC3)cc2OC)ncc1Cl` (configuration not stated), in the data set on A549 [6], the IC50 amounted to 3580 nM.
